# Experimental data published in patent US20030032587A1, “Urocortin peptides” (The Salk Institute for Biological Studies, priority 1995, published 2003).
# Bridges are numbered along the chain shown (N, C = ends). Where no end group is shown, it is not given here. [ ]: non-standard residue; d: D form.
# What was measured:
# [1] = system: mammalian mean arterial blood pressure; experiment: in vivo test measuring elevation of mean arterial blood pressure as a result of iv injection; conditions: result in words; indicative of a Ucn antagonist
# Text: The peptide, Ucn(11-40), having the amino acid sequence (see SEQ ID NO: 8): […] is synthesized in the manner described in Example I. To evaluate the biological activity of a candidate peptide as a Ucn antagonist (which will be indicative of its effective binding to CRF receptors), the previously mentioned assay from Endocrinology, 91, supra, is run in the presence of a challenge dose of ovine CRF. […] An in vivo test measuring elevation of mean arterial blood pressure as a result of iv injection is also simply and straightforwardly performed.
# [2] = system: rat anterior pituitary cells; experiment: ACTH secretion by anterior pituitary cell cultures in the presence of a challenge dose of ovine CRF (antagonist test); assay type: cell-based; conditions: challenge dose of ovine CRF; relative to [D-Phe12,Nle21,38]-r/hCRF(12-41)
# Text: A straightforward assay using rat anterior pituitary cells in monolayer culture can be carried out to determine whether a candidate peptide thereof will function as a CRF agonist and stimulate ACTH secretion by activating CRF receptors on such cells. The procedure which is used is that generally set forth in Endocrinology, 91, supra. A very similar assay is used to test for antagonistic properties, using a challenge dose of oCRF or the like.
# An in vivo test measuring elevation of mean arterial blood pressure as a result of iv injection is also simply and straightforwardly performed.
# [3] = target: CRF receptors on anterior pituitary cells in culture; experiment: cell-based or functional assay
molecule,measurement,setting,value
H-D-Phe-His-Leu-Leu-Arg-Thr-Leu-Leu-Glu-Leu-Ala-Arg-Thr-Gln-Ser-Gln-Arg-Glu-Arg-Ala-Glu-Gln-Asn-Arg-Ile-Ile-Phe-Asp-Ser-Val-NH2 (H-[dF]HLLRTLLELARTQSQRERAEQNRIIFDSV-NH2; SMILES CC[C@H](C)[C@H](NC(=O)[C@H](CCCNC(=N)N)NC(=O)[C@H](CC(N)=O)NC(=O)[C@H](CCC(N)=O)NC(=O)[C@H](CCC(=O)O)NC(=O)[C@H](C)NC(=O)[C@H](CCCNC(=N)N)NC(=O)[C@H](CCC(=O)O)NC(=O)[C@H](CCCNC(=N)N)NC(=O)[C@H](CCC(N)=O)NC(=O)[C@H](CO)NC(=O)[C@H](CCC(N)=O)NC(=O)[C@@H](NC(=O)[C@H](CCCNC(=N)N)NC(=O)[C@H](C)NC(=O)[C@H](CC(C)C)NC(=O)[C@H](CCC(=O)O)NC(=O)[C@H](CC(C)C)NC(=O)[C@H](CC(C)C)NC(=O)[C@@H](NC(=O)[C@H](CCCNC(=N)N)NC(=O)[C@H](CC(C)C)NC(=O)[C@H](CC(C)C)NC(=O)[C@H](Cc1c[nH]cn1)NC(=O)[C@H](N)Cc1ccccc1)[C@@H](C)O)[C@@H](C)O)C(=O)N[C@H](C(=O)N[C@@H](Cc1ccccc1)C(=O)N[C@@H](CC(=O)O)C(=O)N[C@@H](CO)C(=O)N[C@H](C(N)=O)C(C)C)[C@@H](C)CC) [[D-Phe^11]-Ucn(11-40)],vasoconstrictive activity causing elevation of mean arterial blood pressure,[1],significant mammalian vasoconstrictive activity
same,"inhibition of ACTH secretion in vitro, times as effective as the Standard Antagonist (confidence limits)",[2],0.551 (0.333-0.857)
H-Pro-D-Phe-His-Leu-Leu-Arg-Thr-Leu-Leu-Glu-Leu-Ala-Arg-Thr-Gln-Ser-Gln-Arg-Glu-Glu-Ala-D-Glu-Lys-Asn-Arg-Ile-Ile-Phe-Asp-Ser-Val-NH2 (H-P[dF]HLLRTLLELARTQSQREEA[dE]KNRIIFDSV-NH2; lactam 20-23; SMILES CC[C@H](C)[C@H](NC(=O)[C@H](CCCNC(=N)N)NC(=O)[C@H](CC(N)=O)NC(=O)[C@@H]1CCCCNC(=O)CC[C@H](NC(=O)[C@H](CCC(=O)O)NC(=O)[C@H](CCCNC(=N)N)NC(=O)[C@H](CCC(N)=O)NC(=O)[C@H](CO)NC(=O)[C@H](CCC(N)=O)NC(=O)[C@@H](NC(=O)[C@H](CCCNC(=N)N)NC(=O)[C@H](C)NC(=O)[C@H](CC(C)C)NC(=O)[C@H](CCC(=O)O)NC(=O)[C@H](CC(C)C)NC(=O)[C@H](CC(C)C)NC(=O)[C@@H](NC(=O)[C@H](CCCNC(=N)N)NC(=O)[C@H](CC(C)C)NC(=O)[C@H](CC(C)C)NC(=O)[C@H](Cc2c[nH]cn2)NC(=O)[C@@H](Cc2ccccc2)NC(=O)[C@@H]2CCCN2)[C@@H](C)O)[C@@H](C)O)C(=O)N[C@@H](C)C(=O)N[C@H](CCC(=O)O)C(=O)N1)C(=O)N[C@H](C(=O)N[C@@H](Cc1ccccc1)C(=O)N[C@@H](CC(=O)O)C(=O)N[C@@H](CO)C(=O)N[C@H](C(N)=O)C(C)C)[C@@H](C)CC),vasoconstrictive activity causing elevation of mean arterial blood pressure,[1],significant mammalian vasoconstrictive activity
same,"inhibition of ACTH secretion in vitro, times as effective as the Standard Antagonist (confidence limits)",[2],2.74 (1.02-8.02)
H-D-Tyr-His-Leu-Leu-Arg-Thr-Leu-Leu-Glu-Leu-Ala-Arg-Thr-Gln-Ser-Gln-Arg-Glu-Glu-Ala-Glu-Lys-Asn-Arg-Ile-Ile-Phe-Asp-Ser-Val-NH2 (H-[dY]HLLRTLLELARTQSQREEAEKNRIIFDSV-NH2; lactam 19-22; SMILES CC[C@H](C)[C@H](NC(=O)[C@H](CCCNC(=N)N)NC(=O)[C@H](CC(N)=O)NC(=O)[C@@H]1CCCCNC(=O)CC[C@H](NC(=O)[C@H](CCC(=O)O)NC(=O)[C@H](CCCNC(=N)N)NC(=O)[C@H](CCC(N)=O)NC(=O)[C@H](CO)NC(=O)[C@H](CCC(N)=O)NC(=O)[C@@H](NC(=O)[C@H](CCCNC(=N)N)NC(=O)[C@H](C)NC(=O)[C@H](CC(C)C)NC(=O)[C@H](CCC(=O)O)NC(=O)[C@H](CC(C)C)NC(=O)[C@H](CC(C)C)NC(=O)[C@@H](NC(=O)[C@H](CCCNC(=N)N)NC(=O)[C@H](CC(C)C)NC(=O)[C@H](CC(C)C)NC(=O)[C@H](Cc2c[nH]cn2)NC(=O)[C@H](N)Cc2ccc(O)cc2)[C@@H](C)O)[C@@H](C)O)C(=O)N[C@@H](C)C(=O)N[C@@H](CCC(=O)O)C(=O)N1)C(=O)N[C@H](C(=O)N[C@@H](Cc1ccccc1)C(=O)N[C@@H](CC(=O)O)C(=O)N[C@@H](CO)C(=O)N[C@H](C(N)=O)C(C)C)[C@@H](C)CC),vasoconstrictive activity causing elevation of mean arterial blood pressure,[1],significant mammalian vasoconstrictive activity
same,"inhibition of ACTH secretion in vitro, times as effective as the Standard Antagonist (confidence limits)",[2],4.01 (2.32-7.05)
H-D-Pro-D-Phe-His-Leu-Leu-Arg-Thr-Leu-Leu-Glu-Leu-Ala-Arg-Thr-Gln-Ser-Gln-Arg-Glu-Glu-Ala-D-Glu-Lys-Asn-Arg-Ile-Ile-Phe-Asp-Ser-Val-NH2 (H-[dP][dF]HLLRTLLELARTQSQREEA[dE]KNRIIFDSV-NH2; lactam 20-23; SMILES CC[C@H](C)[C@H](NC(=O)[C@H](CCCNC(=N)N)NC(=O)[C@H](CC(N)=O)NC(=O)[C@@H]1CCCCNC(=O)CC[C@H](NC(=O)[C@H](CCC(=O)O)NC(=O)[C@H](CCCNC(=N)N)NC(=O)[C@H](CCC(N)=O)NC(=O)[C@H](CO)NC(=O)[C@H](CCC(N)=O)NC(=O)[C@@H](NC(=O)[C@H](CCCNC(=N)N)NC(=O)[C@H](C)NC(=O)[C@H](CC(C)C)NC(=O)[C@H](CCC(=O)O)NC(=O)[C@H](CC(C)C)NC(=O)[C@H](CC(C)C)NC(=O)[C@@H](NC(=O)[C@H](CCCNC(=N)N)NC(=O)[C@H](CC(C)C)NC(=O)[C@H](CC(C)C)NC(=O)[C@H](Cc2c[nH]cn2)NC(=O)[C@@H](Cc2ccccc2)NC(=O)[C@H]2CCCN2)[C@@H](C)O)[C@@H](C)O)C(=O)N[C@@H](C)C(=O)N[C@H](CCC(=O)O)C(=O)N1)C(=O)N[C@H](C(=O)N[C@@H](Cc1ccccc1)C(=O)N[C@@H](CC(=O)O)C(=O)N[C@@H](CO)C(=O)N[C@H](C(N)=O)C(C)C)[C@@H](C)CC),vasoconstrictive activity causing elevation of mean arterial blood pressure,[1],significant mammalian vasoconstrictive activity
same,"inhibition of ACTH secretion in vitro, times as effective as the Standard Antagonist (confidence limits)",[2],4.99 (2.26-11.55)
H-D-Phe-His-Leu-Leu-Arg-Thr-Leu-Leu-Glu-Leu-Ala-Arg-Thr-Gln-Ser-Gln-Arg-Glu-Glu-Ala-D-Glu-Lys-Asn-Arg-Ile-Ile-Phe-Asp-Ser-Val-NH2 (H-[dF]HLLRTLLELARTQSQREEA[dE]KNRIIFDSV-NH2; lactam 19-22 (inferred)),vasoconstrictive activity causing elevation of mean arterial blood pressure,[1],significant mammalian vasoconstrictive activity
same,"inhibition of ACTH secretion in vitro, times as effective as the Standard Antagonist (confidence limits)",[2],4.72 (2.19-10.00)
H-D-Phe-His-Leu-Leu-Arg-Thr-Leu-Leu-Glu-Leu-Ala-Arg-Thr-Gln-Ser-Gln-Arg-Glu-Glu-Ala-Glu-Lys-Asn-Arg-Ile-Ile-Phe-Asp-Ser-Val-NH2 (H-[dF]HLLRTLLELARTQSQREEAEKNRIIFDSV-NH2; lactam 19-22 (inferred)),vasoconstrictive activity causing elevation of mean arterial blood pressure,[1],significant mammalian vasoconstrictive activity
same,"inhibition of ACTH secretion in vitro, times as effective as the Standard Antagonist (confidence limits)",[2],10.34 (4.27-25.58)
DNPSLSIDLTFHLLRTLLELARTQSQRERAEQNRIIFDSV-NH2 [Human Ucn(1-40)],"ACTH secretion, anterior pituitary cell cultures, potency relative to r/hCRF",[3],3.1 times r/hCRF
